# Reference: PubChem BioAssay (NCI)
#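 Interpolation was linear, between the two tested concentrations surrounding the appropriate level; five concentrations were tested over 48 hours in 96-well plates. GI50 is the concentration that inhibits growth by half. The concentration for full growth arrest is given as TGI.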
# Key:
# Assay in all cases: NCI tumour cell line growth inhibition, 48 h
# CCRF-CEM leukemia = test system: CCRF-CEM leukemia
# NCI-H226 lung = test system: NCI-H226 lung
# OVCAR-8 ovarian = test system: OVCAR-8 ovarian
# SF-539 CNS = test system: SF-539 CNS
# SN12C renal = test system: SN12C renal
# TK-10 renal = test system: TK-10 renal
# U251 CNS = test system: U251 CNS
# UO-31 renal = test system: UO-31 renal
# COLO 205 colon = test system: COLO 205 colon
# PC-3 prostate = test system: PC-3 prostate
Structure (SMILES),TGI (CCRF-CEM leukemia) [µM],TGI (NCI-H226 lung) [µM],TGI (OVCAR-8 ovarian) [µM],TGI (SF-539 CNS) [µM],TGI (SN12C renal) [µM],TGI (TK-10 renal) [µM],TGI (U251 CNS) [µM],TGI (UO-31 renal) [µM],TGI (COLO 205 colon) [µM],TGI (PC-3 prostate) [µM],GI50 (COLO 205 colon) [µM],GI50 (OVCAR-8 ovarian) [µM],GI50 (PC-3 prostate) [µM],GI50 (SF-539 CNS) [µM],GI50 (SN12C renal) [µM],GI50 (TK-10 renal) [µM],GI50 (U251 CNS) [µM],GI50 (UO-31 renal) [µM],GI50 (NCI-H226 lung) [µM],GI50 (CCRF-CEM leukemia) [µM]
S=c1nc(COc2ccc(Cl)cc2Cl)[nH][nH]1,> 100,> 100,> 100,> 100,> 100,> 100,> 100,> 100,,,,,,,,,,,,
O=[N+]([O-])c1ccc(C2CC(c3ccccc3Cl)=Nc3ccccc3S2=O)cc1 (stereo not given),4.37,17.6,11.7,15.9,5.2,19.9,,4.74,22.1,17.3,,,,,,,,,,
N#CC1CCCCOCCOCCOCCOCCOCCCCCC1=O (stereo not given),> 100,> 100,> 100,,> 100,> 100,> 100,> 100,> 100,,,,,,,,,,,
O=[N+]([O-])c1ccc(Cl)c(C2CC(c3cccc4ccccc34)=Nc3ccccc3S2)c1 (stereo not given),> 64.7,> 67.1,30.8,49.3,> 59.4,> 100,65.9,> 66.8,> 100,,,,,,,,,,,
Cc1nnc2c3nnc(C)n3c3ccccc3n12,> 100,> 100,> 100,> 100,> 100,> 100,> 100,> 100,> 100,,,,,,,,,,,
COc1cc(OC)c2nccc(NCCCN(C)C)c2c1[N+](=O)[O-],> 100,,> 100,> 100,> 100,> 100,> 100,> 100,> 100,> 100,,,,,,,,,,
O=c1cc(-c2c[nH]c3ccccc23)[nH]c2cc3c(cc12)OCO3,> 100,> 100,,> 100,> 100,> 100,> 100,> 100,> 100,,,,,,,,,,,
COc1ccccc1C1=C(Nc2ccccc2)C(=O)NC1=O,,,> 25,> 25,> 25,> 25,> 25,> 25,> 25,> 25,> 18.9,> 25,> 25,> 25,> 25,> 25,> 25,> 25,,
COc1cccc(CSCC(=O)O)c1,,> 100,> 100,> 100,> 100,> 100,> 100,> 100,> 100,> 100,,,,,,,,,,
CS(=O)(=O)NNS(=O)(=O)c1ccccc1,> 100,> 100,> 100,> 100,> 100,> 100,> 100,> 100,> 100,,,,,,,,,,,
CN(C)c1nnnn1-c1c(N)n(C)c(=O)n(C)c1=O,> 100,> 100,> 100,> 100,> 100,> 100,> 100,> 100,> 100,,,,,,,,,,,
CC(=O)N1N=C(c2ccc(Nc3ccnc4cc(Cl)ccc34)cc2)CC1c1ccc(Cl)cc1 (stereo not given),,> 100,> 100,> 100,> 100,> 100,> 100,> 100,> 100,> 100,5.93,> 100,3.02,> 100,30.7,> 100,> 100,3.87,> 100,
Cc1ccc(NC(=O)C2C(=O)N(c3ccc(C)c(C)c3)C(=O)/C2=N\NC(N)=O)cc1C (stereo not given),> 100,> 100,> 100,> 100,> 100,> 100,> 100,> 100,> 100,,,,,,,,,,,
NC(=O)c1ccccc1NC(=O)C(=O)Cc1nc2ccccc2[nH]c1=O,> 100,,> 100,> 100,,> 100,> 100,> 100,> 100,,,,,,,,,,,
Cc1cc(-c2ccccc2)nc(Nc2nc3ccccc3o2)n1,> 100,> 100,> 100,> 100,> 100,> 100,> 100,> 100,> 100,,,,,,,,,,,
Clc1ccc(-c2csc(Nc3cccc(-c4csc(-c5ccccc5)n4)c3)n2)cc1,,,39,,16.8,> 50,14.1,27.4,23.1,17,10,14.6,5.71,,7.6,19.8,7.39,12.4,,
Nc1nc(N)c(C=Nc2ccc(Br)cc2)c(Nc2ccc(Br)cc2)n1,26.2,,40.7,24.4,33.6,37.6,30.1,28.1,34.6,26.4,14.5,15.2,8.34,12.1,8.19,13,12,6.55,,9.3
CC(=O)OC1=CC2=CC[C@H]3[C@@H]4CCC(=O)[C@@]4(C)CC(=O)[C@]3(S)[C@@]2(C)CC1,> 100,,> 100,43.1,> 100,85.1,> 100,> 100,> 100,> 100,,,,,,,,,,
COc1ccc(S(=O)(=O)NC2=NCCN2C(=S)SN2CCn3c2nsc3=S)cc1,32.4,33.2,> 100,,40,30.2,40.5,3.41,27.4,40.1,11,27.3,17.5,,18.2,15.9,18.8,1.61,15.6,7.95
